Values after ≈ are worked out from the molar mass of the structure shown. Like-named read-outs stand apart in the source and are kept apart here.
Key:
[1] = test system: Staphylococcus aureus SA161, HA-MRSA, tetracycline-resistant, tet(M); assay: MIC assay, SA161; format: cell-based; settings: read-out: MIC SA161 MRSA, tetM
[2] = test system: Escherichia coli EC107, ATCC 25922; assay: MIC assay, EC107; format: cell-based
[3] = test system: Enterococcus faecalis EF159, tetracycline-resistant, tet(M); assay: MIC assay, EF159; format: cell-based; settings: read-out: MIC EF159 tetM
[4] = test system: Streptococcus pneumoniae SP160, tetracycline-resistant, tet(M); assay: MIC assay, SP160; format: cell-based; settings: read-out: MIC SP160 tetM
[5] = test system: Pseudomonas aeruginosa PA111, ATCC 27853; assay: MIC assay, PA111; format: cell-based
[6] = test system: Klebsiella pneumoniae KP153, tetracycline-resistant, tet(A), MDR, ESBL+; assay: MIC assay, KP153; format: cell-based; settings: read-out: MIC KP153 tetA
[7] = test system: Staphylococcus aureus SA101, ATCC 29213, MSSA; assay: MIC assay, SA101; format: cell-based; settings: read-out: MIC SA101 29213
[8] = test system: Enterobacter cloacae EC108, ATCC 13047; assay: MIC assay, EC108; format: cell-based
[9] = test system: Staphylococcus aureus SA158, tetracycline-resistant tet(K); assay: MIC assay, SA158; format: cell-based; settings: read-out: MIC SA158 tetK
[10] = test system: Acinetobacter baumannii AB110, ATCC 19606; assay: MIC assay, AB110; format: cell-based
[11] = test system: Streptococcus pneumoniae SP106, ATCC 49619; assay: MIC assay, SP106; format: cell-based
[12] = test system: Staphylococcus aureus SA100, ATCC 13709, MSSA, Smith strain; assay: MIC assay, SA100; format: cell-based; settings: read-out: MIC SA100 13709
[13] = test system: Escherichia coli EC155, tetracycline-resistant, tet(A); assay: MIC assay, EC155; format: cell-based; settings: read-out: MIC EC155 tetA
[14] = test system: Klebsiella pneumoniae KP109, ATCC 13883; assay: MIC assay, KP109; format: cell-based; settings: ATCC13883, read-out: MIC KP109 13883
[15] = test system: Enterococcus faecalis EF103, ATCC 29212; assay: MIC assay, EF103; format: cell-based; settings: Enterococcus faecalis, ATCC29212, read-out: MIC EF103 29212
[16] = test system: E. coli S30 extract system, coupled in vitro transcription/translation, firefly luciferase readout; assay: In vitro transcription/translation (TnT) assay; format: biochemical
[17] = numeric values of control compounds

Q: Which MIC [1, 17] does the source give for `CN(C)c1ccc(O)c2c1C[C@H]1C[C@H]3[C@H](N(C)C)C(O)=C(C(N)=O)C(=O)[C@@]3(O)C(O)=C1C2=O` [Mino., Minocycline, reference compound] here?
A: 8 µg/mL (≈ 17.5 µM)

Q: What about the MIC ([2]; ATCC25922, numeric values of control compounds, read-out: MIC EC107 25922) of the same compound?
A: 0.5 µg/mL (≈ 1.09 µM)

Q: And the MIC [3, 17]?
A: 16 µg/mL (≈ 35 µM)

Q: And the MIC [4, 17]?
A: 2 µg/mL (≈ 4.37 µM)

Q: And the MIC ([5]; ATCC27853, numeric values of control compounds, read-out: MIC PA111 27853)?
A: 16 µg/mL (≈ 35 µM)

Q: What about the MIC [6, 17] of the same compound?
A: 8 µg/mL (≈ 17.5 µM)

Q: What about the MIC [7, 17] of the same compound?
A: 0.06 µg/mL (≈ 0.131 µM)

Q: What about the MIC ([8]; ATCC13047, numeric values of control compounds, read-out: MIC EC108 13047) of the same compound?
A: 2 µg/mL (≈ 4.37 µM)

Q: And the MIC [9, 17]?
A: 0.03 µg/mL (≈ 0.0656 µM)

Q: And the MIC ([10]; ATCC19606, numeric values of control compounds, read-out: MIC AB110 19606)?
A: 0.06 µg/mL (≈ 0.131 µM)

Q: And the MIC ([11]; ATCC49619, numeric values of control compounds, read-out: MIC SP106 49619)?
A: < 0.015 µg/mL

Q: What about the MIC [12, 17] of the same compound?
A: 0.06 µg/mL (≈ 0.131 µM)

Q: And the MIC [13, 17]?
A: 8 µg/mL (≈ 17.5 µM)

Q: With `CN(C)c1cc(NC(=O)CNC(C)(C)C)c(O)c2c1C[C@H]1C[C@H]3[C@H](N(C)C)C(O)=C(C(N)=O)C(=O)[C@@]3(O)C(O)=C1C2=O` [Tige., Tigecycline, reference compound] as the compound, how does the MIC [1] read?
A: 0.125 µg/mL (≈ 0.213 µM)

Q: What about the MIC ([2]; ATCC25922, read-out: MIC EC107 25922) of the same compound?
A: 0.03 µg/mL (≈ 0.0512 µM)

Q: And the MIC [3]?
A: 0.06 µg/mL (≈ 0.102 µM)

Q: And the MIC [4]?
A: 0.0156 µg/mL (≈ 0.0266 µM)

Q: And the MIC [14]?
A: 0.125 µg/mL (≈ 0.213 µM)

Q: What about the MIC ([5]; ATCC27853, read-out: MIC PA111 27853) of the same compound?
A: 8 µg/mL (≈ 13.7 µM)

Q: And the MIC [6]?
A: 1 µg/mL (≈ 1.71 µM)

Q: And the MIC [7]?
A: 0.06 µg/mL (≈ 0.102 µM)

Q: What about the MIC ([8]; ATCC13047, read-out: MIC EC108 13047) of the same compound?
A: 0.25 µg/mL (≈ 0.427 µM)

Q: What about the MIC [9] of the same compound?
A: 0.06 µg/mL (≈ 0.102 µM)

Q: And the MIC ([10]; ATCC19606, read-out: MIC AB110 19606)?
A: 0.25 µg/mL (≈ 0.427 µM)

Q: And the MIC ([11]; ATCC49619, read-out: MIC SP106 49619)?
A: 0.0156 µg/mL (≈ 0.0266 µM)

Q: And the MIC [15]?
A: 0.03 µg/mL (≈ 0.0512 µM)

Q: And the MIC [12]?
A: 0.06 µg/mL (≈ 0.102 µM)

Q: What about the MIC [13] of the same compound?
A: 0.5 µg/mL (≈ 0.854 µM)

Q: And the “TnT IC50” value [16]?
A: 0.3 µg/mL
